Measurements taken from patent US10689331B2, “IDO inhibitors” (Bristol-Myers Squibb Company, priority 2015, dated 2020).
pIC50: −log10 of the molar value. Counter-ions that a name gives are not always drawn.

Molecular target: T1, human IDO1 (Homo sapiens, UniProt P14902)
T1 construct: expressed in transfected cells
Experiment: HEK Human IDO-1 inhibition assay (kynurenine readout, Ehrlich reagent, absorbance 490 nm)
Type: cell-based
Details: human IDO1/HEK293 cells, incubated 20 hours with compound; 500 nM reference standard = 100% inhibition
Experimental: HEK293 cells were transfected with a pCDNA-based mammalian expression vector harboring human IDO1 cDNA (NM 002164.2) by electroporation. They were cultured in medium (DMEM with 10% FBS) containing 1 mg/ml G418 for two weeks. Clones of HEK293 cells that stably expressed human IDO1 protein were selected and expanded for IDO inhibition assay.
The human IDO1/HEK293 cells were seeded at 10,000 cells per 50 uL per well with RPMI/phenol red free media contains 10% FBS in a 384-well black wall clear bottom tissue culture plate (Matrix Technologies LLC) 100 nL of certain concentration of compound was then added to each well using ECHO liquid handling systems. The cells were incubated for 20 hours in 37° C. incubator with 5% CO2.
The compound treatments were stopped by adding Trichloroacetic Acid (Sigma-Aldrich) to a final concentration at 0.2%. The cell plate was further incubated at 50° C. for 30 minute. The equal volume supernatant (20 uL) and 0.2% (w/v) Ehrlich reagent (4-dimethylaminobenzaldehyde, Sigma-Aldrich) in glacial acetic acid were mixed in a new clear bottom 384-well plate. This plate was then incubated at room temperature for 30 minute. The absorbance at 490 nm was measured on Envision plate reader. Compound IC50 values were calculated using the counts of 500 nM of a reference standard treatment as one hundred percent inhibition, and counts of no compound but DMSO treatment as zero percent inhibition.

T1 sequence (P14902 whole entry): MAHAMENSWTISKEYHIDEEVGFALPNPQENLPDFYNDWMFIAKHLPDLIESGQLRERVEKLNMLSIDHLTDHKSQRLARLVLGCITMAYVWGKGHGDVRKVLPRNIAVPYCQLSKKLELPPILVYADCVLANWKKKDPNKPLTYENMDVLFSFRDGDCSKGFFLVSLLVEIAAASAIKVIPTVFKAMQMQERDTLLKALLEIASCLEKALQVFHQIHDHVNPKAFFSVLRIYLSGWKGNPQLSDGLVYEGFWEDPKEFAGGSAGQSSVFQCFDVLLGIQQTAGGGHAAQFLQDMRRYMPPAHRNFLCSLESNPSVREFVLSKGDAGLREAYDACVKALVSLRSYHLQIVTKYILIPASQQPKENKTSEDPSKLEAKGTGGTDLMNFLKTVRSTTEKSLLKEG

pIC50 | Structure (SMILES)
≤ 7.00 | Cc1cnc(NC(=O)COc2ccc(N(CC(C)C)C3CCCCC3)c(NC(=O)Nc3ccc(Cl)cc3F)c2)s1 [Example 111, 2-(3-(3-(4-chloro-2-fluorophenyl)ureido)-4-(cyclohexyl(isobutyl)amino)phenoxy)-N-(5-methylthiazol-2-yl)acetamide]
> 8.30 | CC(C)CN(c1ccc(OCC(=O)O)cc1NC(=O)Nc1ccc(Cl)cc1F)C1CCCCC1 [Example 1, 2-(3-(3-(4-chloro-2-fluorophenyl)ureido)-4-(cyclohexyl(isobutyl)amino)phenoxy)acetic acid]
> 8.30 | CC(C)CN(c1ccc(OCC(=O)O)cc1NC(=O)Nc1cc(F)ccc1F)C1CCCCC1 [Example 20, 2-(4-(cyclohexyl(isobutyl)amino)-3-(3-(2,5-difluorophenyl)ureido)phenoxy)acetic acid]
> 7.00 | COCCN(c1ccc(OCC(=O)O)cc1NC(=O)Nc1ccc(Cl)cc1F)C1CCCCC1 [Example 116, 2-(3-(3-(4-chloro-2-fluorophenyl)ureido)-4-(cyclohexyl(2-methoxyethyl)amino)phenoxy)acetic acid]
> 8.30 | CCCC(Oc1ccc(N(CC(C)C)C2CCCCC2)c(NC(=O)Nc2ccc(Cl)cc2F)c1)C(=O)O (single isomer, unassigned) [Example 85-1, 2-(3-(3-(4-chloro-2-fluorophenyl)ureido)-4-(cyclohexyl(isobutyl)amino)phenoxy)pentanoic acid]
≤ 7.00 | CC(C)CN(c1ccc(OCC(=O)O)cc1NC(=O)Nc1nccs1)C1CCCCC1 [Example 12, 2-(4-(cyclohexyl(isobutyl)amino)-3-(3-(thiazol-2-yl)ureido)phenoxy)acetic acid]
> 8.30 | Cc1ccc(NC(=O)Nc2cc(OC(C)C(=O)O)ccc2N(CC(C)C)C2CCCCC2)cc1 (single isomer, unassigned) [Example 60-1, 2-(4-(cyclohexyl(isobutyl)amino)-3-(3-(p-tolyl)ureido)phenoxy)propanoic acid]
> 7.00 | CC(C)CN(c1cc(F)c(OCC(=O)O)cc1NC(=O)Nc1ccccc1F)C1CCCCC1 [Example 129]
> 7.00 | Cc1ccc(NC(=O)Nc2cc(OC(C(=O)O)C(C)C)ccc2N(CC(C)C)C2CCCCC2)cc1 (racemic) [Example 84, (±)-2-(4-(cyclohexyl(isobutyl)amino)-3-(3-(p-tolyl)ureido)phenoxy)-3-methylbutanoic acid]
> 7.00 | C=C(C)CN(c1ccc(OC(C)C(=O)O)cc1NC(=O)Nc1ccc(Cl)cc1F)C1CCOCC1 (single isomer, unassigned) [Example 139-1, 2-(3-(3-(4-chloro-2-fluorophenyl)ureido)-4-((2-methylallyl)(tetrahydro-2H-pyran-4-yl)amino)phenoxy)propanoic acid]
≤ 7.00 | COc1cnc(Nc2cc(OC(C)C(=O)O)ccc2N(CC(C)C)C2CCCCC2)nc1 (racemic) [Example 63, (±)-2-(4-(cyclohexyl(isobutyl)amino)-3-((5-methoxypyrimidin-2-yl)amino)phenoxy)propanoic acid]
≤ 7.00 | Cc1ccc(NC(=O)Nc2cc(OCC(=O)O)ccc2N(CC(C)C)CC(C)C)cc1 [Example 112, 2-(4-(diisobutylamino)-3-(3-(p-tolyl)ureido)phenoxy)acetic acid]
≤ 7.00 | CC(C)CN(c1ccc(OCC(=O)O)cc1NC(=O)Nc1ccc(Cl)cc1F)C1CCC(O)CC1 (stereo not drawn) [Example 149, 2-(3-(3-(4-chloro-2-fluorophenyl)ureido)-4-((0-4-hydroxycyclohexyl)(isobutyl)amino)phenoxy)acetic acid]
> 7.00 | C=C(C)CN(c1ccc(OCC(=O)O)cc1NC(=O)Nc1ccc(Cl)cc1F)C1CCOCC1 [Example 137, 2-(3-(3-(4-chloro-2-fluorophenyl)ureido)-4-((2-methylallyl)(tetrahydro-2H-pyran-4-yl)amino)phenoxy)acetic acid]
> 7.00 | Cc1ccc(CC(=O)Nc2cc(OC(C)C(=O)O)ccc2N(CC(C)C)C2CCCCC2)c(F)c1 (racemic) [Example 76, 2-(4-(cyclohexyl(isobutyl)amino)-3-(2-(2-fluoro-4-methylphenyl)acetamido)phenoxy)propanoic acid]
> 7.00 | O=C(O)COc1ccc(N(CC2CC2)C2CCCCC2)c(NC(=O)Nc2ccc(Cl)cc2F)c1 [Example 118, 2-(3-(3-(4-chloro-2-fluorophenyl)ureido)-4-(cyclohexyl(cyclopropylmethyl)amino)phenoxy)acetic acid]
> 7.00 | COCC(Oc1ccc(N(CC(C)C)C2CCCCC2)c(NC(=O)Nc2ccc(C)cc2)c1)C(=O)O (single isomer, unassigned) [Example 90-2, 2-(4-(cyclohexyl(isobutyl)amino)-3-(3-(p-tolyl)ureido)phenoxy)-3-methoxypropanoic acid]

pIC50 | Structure (SMILES)
≤ 7.00 | CC(C)CN(c1ccc(OC(C)C(=O)O)cc1NC(=O)Cc1ccc(F)cc1)C1CCCCC1 (racemic) [Example 74, 2-(4-(cyclohexyl(isobutyl)amino)-3-(2-(4-fluorophenyl)acet-amido)phenoxy)propanoic acid]
≤ 7.00 | Cc1cc(F)ccc1NC(=O)Nc1cc(OCC(=O)O)ccc1N(CC(C)C)C1CCCCC1 [Example 38, 2-(4-(cyclohexyl(isobutyl)amino)-3-(3-(4-fluoro-2-methylphenyl)ureido)phenoxy) acetic acid]
≤ 7.00 | CC(C)CN(c1ccc(OCC(=O)O)cc1NC(=O)Nc1cccnc1)C1CCCCC1 [Example 3, 2-(4-(cyclohexyl(isobutyl)amino)-3-(3-(pyridin-3-yl)ureido)phenoxy)acetic acid]
> 8.30 | CC(C)CN(c1ccc(OCC(=O)NS(=O)(=O)C(C)(C)C)cc1NC(=O)Nc1ccc(Cl)cc1F)C1CCCCC1 [Example 48, N-(tert-butylsulfonyl)-2-(3-(3-(4-chloro-2-fluorophenyl)ureido)-4-(cyclohexyl(isobutyl)amino)phenoxy) acetamide]
> 8.30 | C=C(C)CN(CCCC(F)(F)F)c1cc(F)c(OCC(=O)O)cc1NC(=O)Nc1ccc(Cl)cc1F [Example 113, 2-(5-(3-(4-chloro-2-fluorophenyl)ureido)-2-fluoro-4-((2-methylallyl)(4,4,4-trifluorobutyl)amino)phenoxy)acetic acid]
≤ 7.00 | CC(C)CN(c1ccc(OCC(=O)O)cc1NC(=O)Nc1cc(F)cc(Cl)c1)C1CCCCC1 [Example 37, 2-(3-(3-(3-chloro-5-fluorophenyl)ureido)-4-(cyclo-hexyl(isobutyl)amino)phenoxy) acetic acid]
≤ 7.00 | CC(C)CN(c1ccc(OCC(=O)O)cc1NC(=O)Nc1ccc(-c2cnco2)cc1)C1CCCCC1 [Example 14, 2-(4-(cyclohexyl(isobutyl)amino)-3-(3-(4-(oxazol-5-yl)phenyl)ureido)phenoxy)acetic acid]
> 8.30 | Cc1ccc(NC(=O)Nc2cc(OC(C)C(=O)NS(=O)(=O)C3CC3)ccc2N(CC(C)C)C2CCCCC2)cc1 (racemic) [Example 69, (±)-2-(4-(cyclohexyl(isobutyl)amino)-3-(3-(p-tolyl)ureido)phenoxy)-N-(cyclopropylsulfonyl)propanamide]
> 7.00 | O=C(O)COc1ccc(N(CC2CC2)C2CCCCC2)c(NC(=O)Nc2cc(F)ccc2F)c1 [Example 130]
> 7.00 | CC(C)CN(c1ccc(OCc2ncco2)cc1NC(=O)Nc1ccc(Cl)cc1F)C1CCCCC1 [Example 156, 1-(4-chloro-2-fluorophenyl)-3-(2-(cyclohexyl(isobutyl)amino)-5-(oxazol-2-ylmethoxy)phenyl)urea]
> 8.30 | CC(C)CN(c1cc(F)c(OC(C)C(=O)O)cc1NC(=O)Nc1ccc(Cl)cc1F)C1CCCCC1 (single isomer, unassigned) [Example 136-1, 2-(5-(3-(4-chloro-2-fluorophenyl)ureido)-4-(cyclohexyl(isobutyl)amino)-2-fluorophenoxy)propanoic acid.TFA]
> 8.30 | CC(C)CN(c1ccc(OCc2nnn[nH]2)cc1NC(=O)Nc1ccccc1F)C1CCCCC1 [Example 97, 1-(5-((1H-tetrazol-5-yl)methoxy)-2-(cyclohexyl(isobutyl)amino)phenyl)-3-(2-fluorophenyl)urea]
≤ 7.00 | C=C(C)CN(c1ccc(OC(C)C(=O)O)cc1NC(=O)Nc1ccc(C)cc1)C1CCOCC1 (racemic) [Example 140, (+/−)-2-(4-((2-methylallyl)(tetrahydro-2H-pyran-4-yl)amino)-3-(3-(p-tolyl)ureido)phenoxy)propanoic acid]
> 8.30 | Cc1ccc(NC(=O)Nc2cc(OC(C)(C)C(=O)O)ccc2N(CC(C)C)C2CCCCC2)cc1 [Example 92, 2-(4-(cyclohexyl(isobutyl)amino)-3-(3-(p-tolyl)ureido)phenoxy)-2-methylpropanoic acid]
> 7.00 | Cc1ccc(NC(=O)Nc2cc(OCC(=O)O)ccc2N(CC(C)C)C2CCCCC2)cc1 [Example 109, 2-(4-(cyclohexyl(isobutyl)amino)-3-(3-(p-tolyl)ureido)phenoxy)acetic acid]
≤ 7.00 | Cc1nnc(NC(=O)Nc2cc(OCC(=O)O)ccc2N(CC(C)C)C2CCCCC2)s1 [Example 11, 2-(4-(cyclohexyl(isobutyl)amino)-3-(3-(5-methyl-1,3,4-thiadiazol-2-yl)ureido)phenoxy)acetic acid]
